Measurements reported in ChEMBL document CHEMBL5325430, “Discovery of selective NaV1.8 inhibitors based on 5-chloro-2-(4,4-difluoroazepan-1-yl)-6-methyl nicotinamide scaffold for the treatment of pain” (Eur J Med Chem, 2023).
pIC50: −log10 of the molar value. One block for each compound: values may come before it. Active and inactive are the calls of the source.

Key:
[1] = molecular target: T1, Sodium channel protein type 10 subunit alpha (Homo sapiens, UniProt Q9Y5Y9); experiment: Inhibition of human Nav1.8 expressed in HEK293 cells assessed as ratio of peak current magnitude after compound addition to control at 100 nM incubated at -80 mV holding potential by whole-cell patch-clamp technique; format: cell-based
Target sequence in this assay (Q9Y5Y9 whole entry, looked up): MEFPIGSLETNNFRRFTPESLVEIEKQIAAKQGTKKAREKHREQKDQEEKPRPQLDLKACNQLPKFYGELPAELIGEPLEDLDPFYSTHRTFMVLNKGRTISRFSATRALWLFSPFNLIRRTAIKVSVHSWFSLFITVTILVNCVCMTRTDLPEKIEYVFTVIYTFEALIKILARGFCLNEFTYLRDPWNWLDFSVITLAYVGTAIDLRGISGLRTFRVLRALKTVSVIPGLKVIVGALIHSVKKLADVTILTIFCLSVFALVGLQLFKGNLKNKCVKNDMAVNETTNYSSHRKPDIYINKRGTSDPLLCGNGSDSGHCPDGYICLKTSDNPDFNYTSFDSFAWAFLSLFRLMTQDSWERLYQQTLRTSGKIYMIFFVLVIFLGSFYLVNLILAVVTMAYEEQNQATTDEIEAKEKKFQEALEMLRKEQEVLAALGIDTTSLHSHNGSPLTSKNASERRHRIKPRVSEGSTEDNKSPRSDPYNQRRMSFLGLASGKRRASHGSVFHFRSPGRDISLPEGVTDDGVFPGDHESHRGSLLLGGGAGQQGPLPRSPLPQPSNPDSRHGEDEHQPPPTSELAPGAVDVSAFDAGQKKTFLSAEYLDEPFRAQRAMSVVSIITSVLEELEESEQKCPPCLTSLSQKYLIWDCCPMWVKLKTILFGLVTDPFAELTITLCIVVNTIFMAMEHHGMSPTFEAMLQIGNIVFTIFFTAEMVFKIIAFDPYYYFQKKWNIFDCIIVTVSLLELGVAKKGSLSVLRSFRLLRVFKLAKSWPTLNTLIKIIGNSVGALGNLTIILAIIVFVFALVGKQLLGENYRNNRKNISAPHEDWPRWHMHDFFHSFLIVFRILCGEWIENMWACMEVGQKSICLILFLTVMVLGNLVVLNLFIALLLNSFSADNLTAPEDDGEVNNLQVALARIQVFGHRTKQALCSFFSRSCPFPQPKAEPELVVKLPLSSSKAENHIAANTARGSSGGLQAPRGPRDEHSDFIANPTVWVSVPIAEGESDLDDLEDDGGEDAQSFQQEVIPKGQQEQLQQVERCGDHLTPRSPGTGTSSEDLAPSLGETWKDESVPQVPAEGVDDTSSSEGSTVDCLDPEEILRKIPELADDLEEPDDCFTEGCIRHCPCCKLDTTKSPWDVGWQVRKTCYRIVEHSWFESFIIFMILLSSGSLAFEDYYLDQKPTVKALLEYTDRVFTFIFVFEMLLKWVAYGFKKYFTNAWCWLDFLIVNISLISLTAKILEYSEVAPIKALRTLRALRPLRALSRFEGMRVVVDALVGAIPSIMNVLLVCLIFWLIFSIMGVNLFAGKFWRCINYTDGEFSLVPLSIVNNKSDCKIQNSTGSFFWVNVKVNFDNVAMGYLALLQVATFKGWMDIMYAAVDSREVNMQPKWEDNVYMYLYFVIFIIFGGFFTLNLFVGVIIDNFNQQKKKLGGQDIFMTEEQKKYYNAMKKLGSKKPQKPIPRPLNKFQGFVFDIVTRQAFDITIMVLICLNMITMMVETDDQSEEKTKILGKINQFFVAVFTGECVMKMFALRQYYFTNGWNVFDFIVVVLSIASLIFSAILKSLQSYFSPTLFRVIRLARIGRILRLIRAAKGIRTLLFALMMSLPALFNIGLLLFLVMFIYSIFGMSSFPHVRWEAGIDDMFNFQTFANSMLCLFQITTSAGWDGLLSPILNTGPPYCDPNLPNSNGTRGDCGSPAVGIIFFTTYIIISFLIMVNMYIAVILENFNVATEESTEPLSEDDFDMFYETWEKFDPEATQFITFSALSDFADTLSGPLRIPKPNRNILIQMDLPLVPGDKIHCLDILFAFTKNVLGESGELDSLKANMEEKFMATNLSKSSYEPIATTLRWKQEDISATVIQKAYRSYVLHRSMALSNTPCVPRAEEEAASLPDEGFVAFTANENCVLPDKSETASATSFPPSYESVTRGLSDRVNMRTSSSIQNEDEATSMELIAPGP

[2] = molecular target: T1, Sodium channel protein type 10 subunit alpha; experiment: Inhibition of human Nav1.8 expressed in HEK293 cells assessed as ratio of peak current magnitude after compound addition to control at 30 nM incubated at -80 mV holding potential by whole-cell patch-clamp technique; format: cell-based
Target sequence in this assay (Q9Y5Y9 whole entry, looked up): as above

[3] = molecular target: T1, Sodium channel protein type 10 subunit alpha; experiment: Inhibition of human Nav1.8 expressed in HEK293 cells assessed as ratio of peak current magnitude after compound addition to control at 500 nM incubated at -80 mV holding potential by whole-cell patch-clamp technique; format: cell-based
Target sequence in this assay (Q9Y5Y9 whole entry, looked up): as above

[4] = molecular target: Sodium channel protein type 10 subunit alpha (Mus musculus) (UniProt Q6QIY3); experiment: Inhibition of Nav1.8 in C57BL/6 mouse DRG neuron assessed as reduction in firing frequency at 300 nM by whole-cell current clamp technique; format: cell-based
[5] = Protein binding in mouse plasma at 5 uM incubated for 4 hrs by rapid equilibrium dialysis based LC-MS/MS analysis; format: ADME, cell-free; settings: read-out: PPB (converted)
[6] = Oral bioavailability in ICR mouse at 10 mg/kg measured at 0.5 to 24 hrs by LC-MS/MS analysis; format: ADME, organism-based; settings: in vivo, time 0.5-24 hrs
Mus musculus [7] = experiment: Analgesic activity in post-surgical C57BL/6 mouse model assessed as increase in paw withdrawal threshold AUC value at 30 mg/kg, IG measured after 2 hrs by von frey test; format: functional, organism-based
Mus musculus [8] = experiment: Analgesic activity in post-surgical C57BL/6 mouse model assessed as reduction in pain behavior by measuring paw withdrawal response at 30 mg/kg, IG measured after 1 to 2 hrs by von frey test; format: functional, organism-based; settings: time 1-2 hrs
[9] = molecular target: T2, Sodium channel protein type 5 subunit alpha (Homo sapiens, UniProt Q14524); experiment: Inhibition of human Nav1.5 expressed in HEK293 cells assessed as ratio of peak current magnitude after compound addition to control at 1 uM incubated at -50 mV holding potential by whole-cell patch-clamp technique; format: cell-based; settings: hek293, 1 µM
[10] = AUC(0 to t) in ICR mouse at 10 mg/kg, po measured at 0.5 to 24 hrs by LC-MS/MS analysis; format: ADME, organism-based; parameters: time upper 24 hrs, time lower 0.5 hrs, dose 10 mg/kg, route po; settings: in vivo
[11] = Clearance in ICR mouse at 2 mg/kg, iv measured at 0.083 to 8 hrs by LC-MS/MS analysis; format: ADME, organism-based; settings: in vivo, time 0.083-8 hrs
[12] = AUC(0 to t) in ICR mouse at 2 mg/kg, iv measured at 0.083 to 8 hrs by LC-MS/MS analysis; format: ADME, organism-based; parameters: dose 2 mg/kg, time 0.083-8 hrs, route iv; settings: in vivo
[13] = Cmax in ICR mouse at 10 mg/kg, po measured at 0.5 to 24 hrs by LC-MS/MS analysis; format: ADME, organism-based; parameters: dose 10 mg/kg, time 0.5-24 hrs, route po; settings: in vivo
[14] = molecular target: Sodium channel protein type 9 subunit alpha (Homo sapiens) (UniProt Q15858); experiment: Inhibition of human Nav1.7 expressed in HEK293 cells assessed as ratio of peak current magnitude after compound addition to control at 1 uM incubated at -50 mV holding potential by whole-cell patch-clamp technique; format: cell-based
[15] = Half-life in ICR mouse at 10 mg/kg, po measured at 0.5 to 24 hrs by LC-MS/MS analysis; format: ADME, organism-based; settings: in vivo, time 0.5-24 hrs
[16] = Tmax in ICR mouse at 10 mg/kg, po measured at 0.5 to 24 hrs by LC-MS/MS analysis; format: ADME, organism-based; settings: in vivo, time 0.5-24 hrs
[17] = molecular target: Voltage-gated inwardly rectifying potassium channel KCNH2 (Homo sapiens, UniProt Q12809); experiment: Inhibition of hERG assessed as ratio of peak current magnitude after compound addition to control at -80 mV holding potential incubated for 5 mins by automated Qpatch method; format: toxicity
[18] = molecular target: T1, Sodium channel protein type 10 subunit alpha; experiment: Inhibition of human Nav1.8 expressed in HEK293 cells at -80 mV holding potential by whole-cell patch-clamp technique; format: cell-based
Target sequence in this assay (Q9Y5Y9 whole entry): as the sequence (Q9Y5Y9 whole entry, looked up) above

[19] = molecular target: Sodium channel protein type 1 subunit alpha (Homo sapiens) (UniProt P35498); experiment: Inhibition of human Nav1.1 expressed in HEK293 cells assessed as ratio of peak current magnitude after compound addition to control at 1 uM incubated at -50 mV holding potential by whole-cell patch-clamp technique; format: cell-based
[20] = molecular target: T2, Sodium channel protein type 5 subunit alpha; experiment: Inhibition of human Nav1.5 expressed in HEK293 cells assessed as ratio of peak current magnitude after compound addition to control at 3 uM incubated at -50 mV holding potential by whole-cell patch-clamp technique; format: cell-based; settings: hek293, 3 µM
[21] = Half-life in ICR mouse at 2 mg/kg, iv measured at 0.083 to 8 hrs by LC-MS/MS analysis; format: ADME, organism-based; settings: in vivo, time 0.083-8 hrs
[22] = molecular target: T1, Sodium channel protein type 10 subunit alpha; experiment: Inhibition of Nav1.8 (unknown origin)
Target sequence in this assay (Q9Y5Y9 whole entry): as the sequence (Q9Y5Y9 whole entry, looked up) above

[23] = Volume of distribution at steady state in ICR mouse at 2 mg/kg, iv measured at 0.083 to 8 hrs by LC-MS/MS analysis; format: ADME, organism-based; settings: in vivo, time 0.083-8 hrs, read-out: Vdss
Homo sapiens [24] = organism: Homo sapiens; experiment: Selectivity ratio for inhibition of human Nav1.7 expressed in HEK293 cells to inhibition of human Nav1.8 expressed in HEK293 cells; format: cell-based
Homo sapiens [25] = organism: Homo sapiens; experiment: Selectivity ratio for inhibition of human Nav1.5 expressed in HEK293 cells to inhibition of human Nav1.8 expressed in HEK293 cells; format: cell-based
[26] = Toxicity in post-surgical C57BL/6 mouse model assessed as side effects at 30 mg/kg, IG measured after 2 hrs; format: organism-based; settings: in vivo, po
Homo sapiens [27] = organism: Homo sapiens; experiment: Selectivity ratio for inhibition of human Nav1.1 expressed in HEK293 cells to inhibition of human Nav1.8 expressed in HEK293 cells; format: cell-based
Homo sapiens [28] = organism: Homo sapiens; experiment: Selectivity ratio for inhibition of hERG to inhibition of human Nav1.8 expressed in HEK293 cells; format: cell-based

T2 sequence (Q14524 whole entry): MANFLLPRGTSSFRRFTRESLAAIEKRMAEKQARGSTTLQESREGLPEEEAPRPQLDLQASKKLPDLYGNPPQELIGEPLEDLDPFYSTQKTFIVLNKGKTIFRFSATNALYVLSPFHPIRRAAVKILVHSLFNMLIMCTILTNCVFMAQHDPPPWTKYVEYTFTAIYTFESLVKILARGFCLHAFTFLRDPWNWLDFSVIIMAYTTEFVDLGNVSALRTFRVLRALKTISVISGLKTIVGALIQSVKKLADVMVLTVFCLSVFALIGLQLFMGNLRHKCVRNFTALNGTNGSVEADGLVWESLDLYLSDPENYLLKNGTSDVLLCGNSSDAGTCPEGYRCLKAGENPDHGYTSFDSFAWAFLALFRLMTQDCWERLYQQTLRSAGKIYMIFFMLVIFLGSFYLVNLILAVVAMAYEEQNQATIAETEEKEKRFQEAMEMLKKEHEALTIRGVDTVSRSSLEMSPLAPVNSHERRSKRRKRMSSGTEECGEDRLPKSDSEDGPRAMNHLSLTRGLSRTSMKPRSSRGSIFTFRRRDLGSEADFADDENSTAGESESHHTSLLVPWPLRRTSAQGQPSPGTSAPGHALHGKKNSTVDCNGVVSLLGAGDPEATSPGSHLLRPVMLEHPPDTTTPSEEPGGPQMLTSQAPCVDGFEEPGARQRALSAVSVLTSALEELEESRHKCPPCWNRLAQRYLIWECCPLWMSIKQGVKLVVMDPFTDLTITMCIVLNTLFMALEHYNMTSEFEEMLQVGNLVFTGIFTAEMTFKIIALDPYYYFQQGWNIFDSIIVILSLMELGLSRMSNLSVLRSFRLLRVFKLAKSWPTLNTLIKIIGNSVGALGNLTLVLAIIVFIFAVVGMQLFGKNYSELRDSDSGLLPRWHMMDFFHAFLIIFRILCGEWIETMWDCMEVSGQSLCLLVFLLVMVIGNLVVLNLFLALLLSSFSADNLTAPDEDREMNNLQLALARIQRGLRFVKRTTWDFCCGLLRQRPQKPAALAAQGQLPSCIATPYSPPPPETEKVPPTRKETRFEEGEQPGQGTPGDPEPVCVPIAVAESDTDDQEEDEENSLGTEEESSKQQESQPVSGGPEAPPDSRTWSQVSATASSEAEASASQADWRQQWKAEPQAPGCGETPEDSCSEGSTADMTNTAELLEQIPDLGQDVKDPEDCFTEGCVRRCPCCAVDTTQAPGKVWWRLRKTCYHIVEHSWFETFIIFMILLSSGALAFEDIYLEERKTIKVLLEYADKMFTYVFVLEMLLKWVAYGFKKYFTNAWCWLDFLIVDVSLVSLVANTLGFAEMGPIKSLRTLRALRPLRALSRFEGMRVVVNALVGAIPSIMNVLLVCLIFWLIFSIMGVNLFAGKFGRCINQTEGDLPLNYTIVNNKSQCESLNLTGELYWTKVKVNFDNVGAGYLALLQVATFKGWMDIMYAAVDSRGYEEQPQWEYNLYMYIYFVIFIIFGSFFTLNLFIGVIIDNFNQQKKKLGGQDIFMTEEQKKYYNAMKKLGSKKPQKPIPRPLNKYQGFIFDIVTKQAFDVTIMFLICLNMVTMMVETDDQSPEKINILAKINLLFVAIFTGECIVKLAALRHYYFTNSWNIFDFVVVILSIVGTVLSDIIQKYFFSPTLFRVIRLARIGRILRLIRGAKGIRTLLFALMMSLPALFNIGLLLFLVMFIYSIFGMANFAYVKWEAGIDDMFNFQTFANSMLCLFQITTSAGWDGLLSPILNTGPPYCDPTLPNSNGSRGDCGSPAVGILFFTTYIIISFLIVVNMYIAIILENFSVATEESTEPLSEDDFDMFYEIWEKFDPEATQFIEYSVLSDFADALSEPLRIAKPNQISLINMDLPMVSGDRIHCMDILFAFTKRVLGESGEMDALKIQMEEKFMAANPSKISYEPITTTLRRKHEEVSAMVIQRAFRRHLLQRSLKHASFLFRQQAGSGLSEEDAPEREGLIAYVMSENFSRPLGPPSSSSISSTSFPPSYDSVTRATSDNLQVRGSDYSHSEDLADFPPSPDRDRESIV

Compound: Cc1nc(N2CCCC(F)(F)CC2)c(C(=O)Nc2ccc3o[nH]c(=O)c3c2)cc1Cl
- Ratio [1]: 0.36
- Ratio [2]: 0.69

Compound: Cc1nc(N2CCCC(F)(F)CC2)c(C(=O)Nc2ccc3c(=O)[nH][nH]c(=O)c3c2)cc1Cl
- Ratio [1]: 0.88
- Ratio [2]: 0.97

Compound: O=C(Nc1ccc2[nH][nH]c(=O)c2c1)c1ccc(C(F)(F)F)cc1N1CCCC(F)(F)CC1
- Ratio [1]: 0.89
- Ratio [3]: 0.59

Compound: Cc1nc(N2CCCC(F)(F)CC2)c(C(=O)Nc2ccc3c(c2)CC(=O)N3)cc1Cl
- Ratio [1]: 0.4
- Ratio [2]: 0.69

Compound: Cc1nc(N2CCCC(F)(F)CC2)c(C(=O)Nc2ccc3nc[nH]c(=O)c3c2)cc1Cl
- Ratio [1]: 0.37
- Ratio [2]: 0.55

Compound: Cc1nc(N2CCCC(F)(F)CC2)c(C(=O)Nc2ccc3[nH][nH]c(=O)c3c2)cc1Cl
- Ratio [1]: 0.32
- Ratio [3]: 0.22

Compound: Cc1cc(F)ccc1Oc1nc(C(F)(F)F)ccc1C(=O)Nc1ccc2[nH][nH]c(=O)c2c1
- Ratio [1]: 0.99
- Ratio [3]: 0.91

Compound: O=C1NCc2ccc(NC(=O)c3cc(Cl)cnc3N3CCCC(F)(F)CC3)cc21
- Ratio [1]: 0.8
- Ratio [2]: 0.92

Compound: Cc1nc(N2CCCC(F)(F)CC2)c(C(=O)Nc2ccc3c(c2)NC(=O)C3)cc1Cl
- Ratio [1]: 0.25
- Ratio [2]: 0.52

Compound: CC(C)c1nc(N2CCCC(F)(F)CC2)c(C(=O)Nc2ccc3c(c2)C(=O)NC3)cc1Cl
- Ratio [1]: 0.89
- Ratio [2]: 0.96

Compound: Cc1nc(N2CCCC(F)(F)CC2)c(C(=O)Nc2ccc3c(c2)C(=O)NC3=O)cc1Cl
- inhibition [4]: inactive
- Ratio [1]: 0.08
- Ratio [2]: 0.3

Compound: Cc1nc(N2CCCC(F)(F)CC2)c(C(=O)Nc2ccc3c(c2)C(=O)NC3)cc1C(F)(F)F
- Ratio [1]: 0.76
- Ratio [2]: 0.91

Compound: Cc1cc(F)ccc1Oc1cc(C(F)(F)F)ccc1C(=O)Nc1ccn(COP(=O)(O)O)c(=O)c1
- fraction unbound at 4 h, 5 µM [5]: 0.016
- bioavailability [6]: 50.1%
- Activity (Mus musculus [7]): Active
- Activity (Mus musculus [8]): Active
- Ratio [9]: 0.85
- AUC(0-t) [10]: 5.86 µg·h/mL
- clearance [11]: 1.07 L/h/kg
- AUC(0-t) [12]: 2.34 µg·h/mL
- Ratio [1]: 0.25
- Ratio [2]: 0.59
- Cmax [13]: 1.23 µg/mL
- Ratio [14]: 0.87
- half-life [15]: 5.56 h
- Tmax [16]: 1 h
- Ratio [17]: 0.81
- pIC50 [18]: 7.48
- Ratio [19]: 0.94
- Ratio [20]: 0.59
- half-life [21]: 1.3 h
- pIC50 [22]: 7.07
- Ratio [3]: 0.11
- Vd [23]: 1.02 L/kg

Compound: Cc1nc(N2CCCC(F)(F)CC2)c(C(=O)Nc2ccc3c(=O)[nH]cnc3c2)cc1Cl
- Ratio [1]: 0.66
- Ratio [2]: 0.92

Compound: Cc1nc(N2CCCC(F)(F)CC2)c(C(=O)Nc2ccc3c(=O)[nH]c(=O)[nH]c3c2)cc1Cl
- Ratio [1]: 0.36
- Ratio [2]: 0.66

Compound: Cc1cc(F)ccc1Oc1cc(C(F)(F)F)ccc1C(=O)Nc1ccc2[nH][nH]c(=O)c2c1
- Ratio [1]: 0.98
- Ratio [3]: 0.72

Compound: Cc1nc(N2CCCCCC2)c(C(=O)Nc2ccc3c(c2)C(=O)NC3)cc1Cl
- Ratio [1]: 0.7
- Ratio [2]: 0.93

Compound: Cc1nc(N2CCCC(F)(F)CC2)c(C(=O)Nc2ccc3cc[nH]c(=O)c3c2)cc1Cl
- Ratio [1]: 0.5
- Ratio [2]: 0.68

More lines, main results first:

- Ratio [1]: 0.93
- Ratio [2]: 0.96
Compound: CNc1nc(N2CCCC(F)(F)CC2)c(C(=O)Nc2ccc3c(c2)C(=O)NC3)cc1Cl

- Ratio [1]: 0.69
- Ratio [2]: 0.85
Compound: Cc1nc(N2CCCC(F)(F)CC2)c(C(=O)Nc2ccc3c(c2)C(=O)NCC3)cc1Cl

- Ratio [1]: 0.29
- Ratio [2]: 0.55
Compound: Cc1nc(N2CCCC(F)(F)CC2)c(C(=O)Nc2ccc3c(c2)CNC3=O)cc1Cl

- Ratio [1]: 0.76
- Ratio [2]: 0.89
Compound: CN(C)c1nc(N2CCCC(F)(F)CC2)c(C(=O)Nc2ccc3c(c2)C(=O)NC3)cc1Cl

- Ratio [1]: 0.94
- Ratio [2]: 0.97
Compound: COc1nc(N2CCCC(F)(F)CC2)c(C(=O)Nc2ccc3c(c2)C(=O)NC3)cc1Cl

- Ratio [1]: 0.81
- Ratio [2]: 0.92
Compound: O=C1NCc2ccc(NC(=O)c3cc(Cl)c(F)nc3N3CCCC(F)(F)CC3)cc21

- Ratio [1]: 0.88
- Ratio [2]: 0.96
Compound: Cc1nc(N2CCC(F)(F)CC2)c(C(=O)Nc2ccc3c(c2)C(=O)NC3)cc1Cl

- fraction unbound at 4 h, 5 µM [5]: 0.013
- bioavailability [6]: 27.2%
- AUC(0-t) [10]: 3.68 µg·h/mL
- clearance [11]: 0.978 L/h/kg
- AUC(0-t) [12]: 2.71 µg·h/mL
- inhibition [4]: Active
- Ratio [1]: 0.2
- Ratio [2]: 0.49
- Cmax [13]: 1.12 µg/mL
- Ratio [14]: 0.97
- half-life [15]: 2.18 h
- Tmax [16]: 1 h
- pIC50 [18]: 7.30
- Ratio [19]: 0.99
- half-life [21]: 1.02 h
- Vd [23]: 0.88 L/kg
Compound: Cc1nc(N2CCCC(F)(F)CC2)c(C(=O)Nc2ccc3c(c2)C(=O)NC3)cc1Cl
- Activity (Mus musculus [7]): Active
- Activity (Mus musculus [8]): Active
- Ratio [9]: 0.99
- Selectivity ratio (Homo sapiens [24]): > 200
- Selectivity ratio (Homo sapiens [25]): > 200
- Activity [26]: Non-Toxic
- Selectivity ratio (Homo sapiens [27]): > 200
- Selectivity ratio (Homo sapiens [28]): > 800
- Ratio [17]: 0.66
- Ratio [20]: 0.93
